Test results from patent US20240287089A1, “Preparation and Uses of 7-Azaindenoisoquinolines” (Purdue Research Foundation, priority 0001, published 2024).

Legend:
SF-539 (CNS) = experiment: NCI-60 cytotoxicity assay; format: cell-based; settings: Homo sapiens; SF-539 CNS; 48 h, sulforhodamine B; read-out: Comparative Cytotoxicity GI50, CNS SF-539
Experimental: (§1) The antiproliferative activities of the indenoisquinoline compounds are determined in the NCI-60 cancer cell lines of the National Cancer Institute Developmental Therapeutics Program (NCI-DTP). […] Cancer cells are incubated with the test compounds at five concentrations ranging from 100 μM to 10 nM for 48 h. After the treated cancer cells are stained with sulforhodamine B dye, the percentage growth is plotted as a function of the common logarithm of the tested compound concentration. […] The approximate average of GI50 values across the entire panel of NCI-60 cancer cell lines for each compound is recorded as the MGM value.
(§2) NCI-60 Cytotoxicity Assay. Compounds were submitted to the National Cancer Institute Developmental Therapeutic Program to determine their growth-inhibitory potentials in NCI-60 cell lines. All compounds satisfied the pre-screening proceeded into the 5-dose cell viability assay, in which cells were treated for 48 h at 5 dosages ranging from 100 μM to 10 nM.

NCI-60 cancer cell lines = experiment: NCI-60 cytotoxicity assay, MGM; format: cell-based; settings: Homo sapiens; entire panel of NCI-60 cancer cell lines; read-out: MGM (approximate average of GI50 values across the NCI-60 panel)
Experimental: as §1, §2

HCT-116 (Colon) = experiment: NCI-60 cytotoxicity assay; format: cell-based, human; settings: Homo sapiens; HCT-116 colon; 48 h, sulforhodamine B; read-out: Comparative Cytotoxicity GI50, Colon HCT-116
Experimental: as §1, §2

HOP-62 (Lung) = experiment: NCI-60 cytotoxicity assay; format: cell-based, human; settings: Homo sapiens; HOP-62 lung; 48 h, sulforhodamine B; read-out: Comparative Cytotoxicity GI50, Lung HOP-62
Experimental: as §1, §2

MCF7 (Breast) = experiment: NCI-60 cytotoxicity assay; format: cell-based, human; settings: Homo sapiens; MCF7 breast; 48 h, sulforhodamine B; read-out: Comparative Cytotoxicity GI50, Breast MCE7
Experimental: as §1, §2

DU-145 (Prostate) = experiment: NCI-60 cytotoxicity assay; format: cell-based, human; settings: Homo sapiens; DU-145 prostate; 48 h, sulforhodamine B; read-out: Comparative Cytotoxicity GI50, Prostate DU-145
Experimental: as §1, §2

OVCAR-3 (Ovarian) = experiment: NCI-60 cytotoxicity assay; format: cell-based, human; settings: Homo sapiens; OVCAR-3 ovarian; 48 h, sulforhodamine B; read-out: Comparative Cytotoxicity GI50, Ovarian OVCAR-3
Experimental: as §1, §2

UACC-62 (Melanoma) = experiment: NCI-60 cytotoxicity assay; format: cell-based, human; settings: Homo sapiens; UACC-62 melanoma; 48 h, sulforhodamine B; read-out: Comparative Cytotoxicity GI50, Melanoma UACC-62
Experimental: as §1, §2

SN12C (Renal) = experiment: NCI-60 cytotoxicity assay; format: cell-based, human; settings: Homo sapiens; SN12C renal; 48 h, sulforhodamine B; read-out: Comparative Cytotoxicity GI50, Renal SN12C
Experimental: as §1, §2

| Structure (SMILES) | GI50 (SF-539 (CNS)) [nM] | GI50 (NCI-60 cancer cell lines) [nM] | GI50 (HCT-116 (Colon)) [nM] | GI50 (HOP-62 (Lung)) [nM] | GI50 (MCF7 (Breast)) [nM] | GI50 (DU-145 (Prostate)) [nM] | GI50 (OVCAR-3 (Ovarian)) [nM] | GI50 (UACC-62 (Melanoma)) [nM] | GI50 (SN12C (Renal)) [nM] |
| --- | --- | --- | --- | --- | --- | --- | --- | --- | --- |
| COc1cc2c3c(n(CCCNC4CCCCC4)c(=O)c2cc1OC)-c1cc2c(cc1C3=O)OCO2 [A7] | 7740 | 6020 | 1320 | 15900 | 1060 | 1840 | 11000 | 28400 | 18600 |
| COc1cnc2c(c1)C(=O)c1c-2n(CCCn2ccnc2)c(=O)c2cc(OC)c(OC)cc12 [A8] | 53 | 240 | 110 | 42 | 30 | 61 | 600 | 40 | 56 |
| CCNCCCn1c2c(c3cc(OC)c(OC)cc3c1=O)C(=O)c1cc(OC)cnc1-2 [A9] | 800 | 1540 | 420 | 320 | 160 | 2160 | 3600 | 700 | 1440 |
| COc1cnc2c(c1)C(=O)c1c-2n(CCCNCC2CC2)c(=O)c2cc(OC)c(OC)cc12 [A10] | 1000 | 860 | 400 | 670 | 160 | 960 | 1820 | 840 | 440 |
